Earlier results, collected in US7198928B2, “Human COX-1 alternatively spliced variants and methods of using same” (Allergan, Inc., priority 2003, dated 2007).

How the values were obtained:
COX-1 = settings: human iris vs human blood
[1] = humans treated with rofecoxib, in comparison with patients receiving naproxen

Row | Structure (SMILES) | potency of COX-1 inhibition in human iris relative to human blood (COX-1) [fold] | thrombotic cardiovascular events [1]
1 | C[C@H](C(=O)O)c1ccc(-c2ccccc2)c(F)c1 [S(+)flurbiprofen] | 70 | –
2 | CS(=O)(=O)c1ccc(C2=C(c3ccccc3)C(=O)OC2)cc1 [rofecoxib] | – | significant increase in thrombotic cardiovascular events
